Measured values published in PMC7517831, “Integrating Machine Learning-Based Virtual Screening With Multiple Protein Structures and Bio-Assay Evaluation for Discovery of Novel GSK3β Inhibitors” (Frontiers in Pharmacology, 2020).
pIC50: −log10 of the molar value.

Target: T1, Glycogen synthase kinase-3β (GSK3β) (Homo sapiens, UniProt P49841)
T1 construct: gene GSK3B
Assay: ADP-Glo luminescent kinase assay, nine-point dose curve
Format: biochemical

T1 sequence (P49841 whole entry): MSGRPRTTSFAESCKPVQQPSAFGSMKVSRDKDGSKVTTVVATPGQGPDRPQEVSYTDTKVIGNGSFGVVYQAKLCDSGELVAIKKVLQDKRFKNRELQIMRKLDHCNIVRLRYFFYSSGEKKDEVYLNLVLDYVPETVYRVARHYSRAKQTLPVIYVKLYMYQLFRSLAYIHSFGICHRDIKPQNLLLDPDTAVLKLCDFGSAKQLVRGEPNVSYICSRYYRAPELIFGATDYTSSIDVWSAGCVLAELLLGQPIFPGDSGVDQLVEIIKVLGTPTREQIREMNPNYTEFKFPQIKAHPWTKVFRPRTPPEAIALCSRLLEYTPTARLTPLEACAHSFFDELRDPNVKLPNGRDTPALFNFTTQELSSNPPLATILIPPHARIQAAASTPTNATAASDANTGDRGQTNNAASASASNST

SMILES	pIC50
COc1cccc(-n2c(=S)sc3c(=O)[nH]c(SCC(=O)Nc4cccc(Cl)c4)nc32)c1 [Cpd22]	4.81
CC(C)(C)[C@H]1CCc2[nH]nc(C(=O)NC3CC3)c2C1 [Cpd49]	5.03
